We go through 17 compounds from US20250276983A1, “COMPOUNDS AND METHODS FOR MODULATING HER2” (IAMBIC THERAPEUTICS, INC., priority 2022, published 2025).

SMILES strings stand for the structures.

Assay [1] has as its system BaF3_EGFRWT cells. Nature of the assay: Cell growth inhibition assay, BaF3_EGFRWT. The assay is classed as cell-based. The settings on record: 72 h, 80 ng/mL recombinant human EGF, 3 days treatment, CellTiterGlo 2.0, read-out: EGFR WT IC50 (nM), cell growth inhibition.
The target of assay [2] is wtEGFR (Homo sapiens (Human), UniProt P00533). Nature of the assay: HotSpot radiometric kinase activity assay, wtEGFR. The assay is classed as biochemical. The settings on record: 4 nM wtEGFR, 10 μM 33P-ATP, 20 min preincubation, 2 hours, read-out: EGFR WT IC50. As to the method:
(§1) The purpose of the wtERBB2, ERBB2-A775_G776insYVMA (ERBB2YVMA), wtEGFR biochemical assay was to evaluate the inhibition (% inhibition and IC50 values) of the small molecule inhibitors by using the “HotSpot” radiometric kinase activity assay. HotSpot assays monitor the […] of kinase substrate by the radioactive gamma phosphate of adenosine triphosphate (33P-ATP) during biochemical reactions. HotSpot assays was performed in steps upon completion of the kinase reaction: deposition of a reaction mixture aliquot onto P81 ion exchange paper, extensive washing of the aforementioned P81 paper using phosphoric acid to remove unbound radiolabeled 33P-ATP from the P81 paper, and finally visualization and quantification of the dried P81 paper utilizing a phosphoimager. […] Typical reaction solutions (10 μL final reaction volume) contained the following buffer conditions: 20 mM Hepes (pH 7.5), 10 mM MgCl2, 1 mM EGTA, 0.01% Brij35, 0.02 mg/mL BSA, 0.1 mM Na3VO4, 2 mM DTT, 1% DMSO. The assay was primed by preparing a fresh 0.2 mg/mL solution of pEY (Sigma Cat: P7244) substrate in the reaction buffer and supplementing that solution with […] of MnCl2 as substrate cofactor (Sigma Cat: M9522). The kinase of interest was then added to the solution at the appropriate concentration (30 nM wtERBB2 from, or 20 nM ERBB2YVMA, or 4 nM wtEGFR) and gently mixed prior to delivery of compound in 100% DMSO by acoustic dispensing (Beckman Echo550). Compound, Kinase, and substrate were allowed to incubate for 20 min at room temperature prior to the initiation of the reaction by addition of 33P-ATP (PerkinElmer Cat: NEG602, final conc 10 μM). […] IC50 determinations were made from a plot of kinase activity as a function of inhibitor concentration fit to the 4-parameter IC50 equation with the enzyme concentration held constant using GraphPad Prism (San Diego).

Assay [3] addresses wtERBB2 (Homo sapiens (Human), UniProt P04626). As to the kind of experiment: HotSpot radiometric kinase activity assay, wtERBB2. The settings on record: 30 nM wtERBB2, 10 μM 33P-ATP, 20 min preincubation, 2 hours, read-out: HER2 WT IC50. The assay is classed as biochemical. As to the method: as §1
Assay [4] concerns BaF3_HER2WT cells. Nature of the assay: Cell growth inhibition assay, BaF3_HER2WT. The assay is classed as cell-based. As to conditions: 72 h, 3 days treatment, CellTiterGlo 2.0, read-out: HER2 WT IC50 (nM), cell growth inhibition. A general note: ATP-based viability assays read luminescence as a measure of living cells.
In assay [5] the test system is BaF3_HER2YVMA cells. As to the kind of experiment: Cell growth inhibition assay, BaF3_HER2YVMA. The assay is classed as cell-based. The settings on record: 72 h, BaF3_HER2YVMA cells, 3 days treatment, CellTiterGlo 2.0; read-out: HER2-YVMA IC50 (nM), cell growth inhibition.

wtEGFR, sequence (P00533 25-1210): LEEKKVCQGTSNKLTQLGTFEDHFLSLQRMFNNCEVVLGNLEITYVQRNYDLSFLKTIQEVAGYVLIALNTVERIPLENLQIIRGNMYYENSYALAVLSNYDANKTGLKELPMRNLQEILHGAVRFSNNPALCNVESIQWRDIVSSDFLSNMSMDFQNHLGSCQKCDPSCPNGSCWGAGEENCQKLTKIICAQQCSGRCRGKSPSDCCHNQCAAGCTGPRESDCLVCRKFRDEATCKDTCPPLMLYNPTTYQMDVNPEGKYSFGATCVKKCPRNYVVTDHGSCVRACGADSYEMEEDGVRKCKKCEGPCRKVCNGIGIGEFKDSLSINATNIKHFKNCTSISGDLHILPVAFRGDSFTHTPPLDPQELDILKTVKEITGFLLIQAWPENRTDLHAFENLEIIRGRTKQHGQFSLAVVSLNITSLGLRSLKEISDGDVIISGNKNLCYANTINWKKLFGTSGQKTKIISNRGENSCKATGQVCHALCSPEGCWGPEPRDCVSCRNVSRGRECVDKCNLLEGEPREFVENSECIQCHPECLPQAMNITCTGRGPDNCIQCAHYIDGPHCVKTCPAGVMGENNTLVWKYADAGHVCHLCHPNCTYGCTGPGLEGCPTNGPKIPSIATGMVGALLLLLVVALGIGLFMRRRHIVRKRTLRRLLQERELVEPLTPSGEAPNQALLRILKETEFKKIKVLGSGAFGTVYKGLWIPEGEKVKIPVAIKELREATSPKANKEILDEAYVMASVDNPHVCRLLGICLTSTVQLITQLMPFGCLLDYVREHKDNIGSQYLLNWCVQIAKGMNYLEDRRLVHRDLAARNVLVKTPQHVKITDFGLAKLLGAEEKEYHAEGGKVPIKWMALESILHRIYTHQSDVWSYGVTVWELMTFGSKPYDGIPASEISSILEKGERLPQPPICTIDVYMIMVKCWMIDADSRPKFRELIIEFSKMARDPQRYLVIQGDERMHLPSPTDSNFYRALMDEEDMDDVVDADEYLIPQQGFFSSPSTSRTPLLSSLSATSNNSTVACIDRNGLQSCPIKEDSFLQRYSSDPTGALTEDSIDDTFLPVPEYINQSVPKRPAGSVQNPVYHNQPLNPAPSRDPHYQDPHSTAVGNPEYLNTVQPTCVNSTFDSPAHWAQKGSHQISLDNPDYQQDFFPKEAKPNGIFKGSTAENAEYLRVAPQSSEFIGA
wtERBB2, sequence (P04626 23-1255): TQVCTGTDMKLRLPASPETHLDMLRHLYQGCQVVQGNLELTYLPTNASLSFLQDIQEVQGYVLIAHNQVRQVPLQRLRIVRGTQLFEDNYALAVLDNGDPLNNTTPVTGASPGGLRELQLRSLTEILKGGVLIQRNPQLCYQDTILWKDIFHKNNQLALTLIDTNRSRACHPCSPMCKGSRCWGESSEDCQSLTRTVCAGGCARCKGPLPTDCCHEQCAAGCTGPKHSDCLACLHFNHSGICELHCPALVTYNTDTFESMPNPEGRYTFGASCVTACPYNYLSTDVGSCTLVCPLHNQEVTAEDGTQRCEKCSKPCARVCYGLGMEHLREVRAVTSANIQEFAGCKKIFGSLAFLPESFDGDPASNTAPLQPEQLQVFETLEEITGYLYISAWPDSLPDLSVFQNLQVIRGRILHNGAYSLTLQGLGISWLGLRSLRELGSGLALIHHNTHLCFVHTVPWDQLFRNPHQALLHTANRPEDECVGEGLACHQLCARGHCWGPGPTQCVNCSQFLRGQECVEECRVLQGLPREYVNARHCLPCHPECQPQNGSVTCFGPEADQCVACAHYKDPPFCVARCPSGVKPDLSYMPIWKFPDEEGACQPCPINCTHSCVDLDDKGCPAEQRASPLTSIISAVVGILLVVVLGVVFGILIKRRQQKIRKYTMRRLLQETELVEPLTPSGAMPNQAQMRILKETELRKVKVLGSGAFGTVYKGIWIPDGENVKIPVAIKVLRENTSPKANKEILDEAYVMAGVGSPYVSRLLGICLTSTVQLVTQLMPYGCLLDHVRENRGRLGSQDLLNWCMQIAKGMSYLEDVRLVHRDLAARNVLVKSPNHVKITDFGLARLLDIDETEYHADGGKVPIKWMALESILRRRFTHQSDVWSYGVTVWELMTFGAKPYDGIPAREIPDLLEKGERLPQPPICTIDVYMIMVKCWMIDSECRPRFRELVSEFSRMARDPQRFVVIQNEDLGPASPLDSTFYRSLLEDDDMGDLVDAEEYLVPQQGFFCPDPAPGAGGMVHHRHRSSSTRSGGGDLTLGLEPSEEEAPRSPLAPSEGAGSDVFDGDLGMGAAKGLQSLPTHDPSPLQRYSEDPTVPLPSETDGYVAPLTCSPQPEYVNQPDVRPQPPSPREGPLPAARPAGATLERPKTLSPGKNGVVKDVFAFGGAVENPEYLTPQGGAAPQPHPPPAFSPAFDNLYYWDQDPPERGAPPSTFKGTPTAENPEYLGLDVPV

For the compound `COC1CCN(C/C=C/C(=O)N2CCC(c3ccn4ncnc(Nc5ccc(Oc6ccc7c(c6)ncn7C)c(C)c5)c34)CC2)C1` (racemic) [Example 106, (E)-4-(3-methoxypyrrolidin-1-yl)-1-(4-(4-((3-methyl-4-((1-methyl-1H-benzo[d]imidazol-5-yl)oxy)phenyl)amino)pyrrolo[2,1-f][1,2,4]triazin-5-yl)piperidin-1-yl)but-2-en-1-one], the IC50 is 1500 to 5000 nM in assay [1] and less than 200 nM in assay [2].

Take `Cc1cc(Nc2ncnn3ccc([C@@H]4CCN(C(=O)/C=C/CN(C)C)C4)c23)ccc1Oc1ccn2ncnc2c1` (single isomer, unassigned) [Example 99]: the IC50 in assay [3] and in assay [2] was less than 200 nM throughout.

Turning to `Cc1cc(Nc2ncnn3ccc([C@@H]4CCCN(C(=O)/C=C/CN(C)C)CC4)c23)ccc1Oc1ccn2ncnc2c1` (single isomer, unassigned) [Example 109], the IC50 in assay [3] and in assay [2] was less than 200 nM throughout.

On to `C=CC(=O)N1CCC[C@@H](c2ccn3ncnc(Nc4ccc(Oc5ccn6ncnc6c5)c(C)c4)c23)CC1` (single isomer, unassigned) [Example 111], for which the IC50 in assay [3] and in assay [2] was less than 200 nM each time.

Take `Cc1cc(Nc2ncnn3ccc(C4CN(C(=O)/C=C/CN(C)C)C4)c23)ccc1Oc1ccn2ncnc2c1` [Example 1, (E)-1-(3-(4-((4-([1,2,4]triazolo[1,5-a]pyridin-7-yloxy)-3-methylphenyl)amino)pyrrolo[2,1-f][1,2,4]triazin-5-yl)azetidin-1-yl)-4-(dimethylamino)but-2-en-1-one]: the IC50 in assay [4] was less than 200 nM; in assay [5], less than 200 nM; in assay [1], 1500 to 5000 nM; in assay [3] it was less than 200 nM; in assay [2], less than 200 nM.

Take `C=CC(=O)N1CC(n2cc(-c3ccn4ncnc(Nc5ccc(Oc6ccn7ncnc7c6)c(C)c5)c34)cn2)C1` [Example 2, 1-(3-(4-(4-((4-([1,2,4]triazolo[1,5-a]pyridin-7-yloxy)-3-methylphenyl)amino)pyrrolo[2,1-f][1,2,4]triazin-5-yl)-1H-pyrazol-1-yl)azetidin-1-yl)prop-2-en-1-one]: the IC50 in assay [4] is less than 200 nM; in assay [5], less than 200 nM; in assay [1], 1500 to 5000 nM; in assay [3] it was less than 200 nM; in assay [2], less than 200 nM.

On to `C=CC(=O)N1CCN(c2ccn3ncnc(Nc4ccc(Oc5ccn6ncnc6c5)c(C)c4)c23)CC1` [Example 6, 1-(4-(4-((4-([1,2,4]triazolo[1,5-a]pyridin-7-yloxy)-3-methylphenyl)amino)pyrrolo[2,1-f][1,2,4]triazin-5-yl)piperazin-1-yl)prop-2-en-1-one], for which the IC50 in assay [4] is less than 200 nM; in assay [5] it was less than 200 nM; in assay [1], 500 to 1500 nM; in assay [3] it was less than 200 nM; in assay [2], less than 200 nM.

Regarding `C=CC(=O)N1CCC(c2ccn3ncnc(Nc4ccc(Oc5ccn6ncnc6c5)c(C)c4)c23)CC1` [Example 7, 1-(4-(4-((4-([1,2,4]triazolo[1,5-a]pyridin-7-yloxy)-3-methylphenyl)amino)pyrrolo[2,1-f][1,2,4]triazin-5-yl)piperidin-1-yl)prop-2-en-1-one], the IC50 in assay [4] was less than 200 nM; in assay [5], less than 200 nM; in assay [1], 200 to 500 nM; in assay [3] it was less than 200 nM; in assay [2], less than 200 nM.

For the compound `C=CC(=O)N1CCCN(c2ccn3ncnc(Nc4ccc(Oc5ccn6ncnc6c5)c(C)c4)c23)CC1` [Example 8, 1-(4-(4-((4-([1,2,4]triazolo[1,5-a]pyridin-7-yloxy)-3-methylphenyl)amino)pyrrolo[2,1-f][1,2,4]triazin-5-yl)-1,4-diazepan-1-yl)prop-2-en-1-one], the IC50 is less than 200 nM in assay [4]; less than 200 nM in assay [5]; 500 to 1500 nM in assay [1]; less than 200 nM in assay [3]; less than 200 nM in assay [2].

As to `Cc1cc(Nc2ncnn3ccc(C4CC5(C4)CN(C(=O)/C=C/CN(C)C)C5)c23)ccc1Oc1ccn2ncnc2c1` [Example 95, (E)-1-(6-(4-((4-([1,2,4]triazolo[1,5-a]pyridin-7-yloxy)-3-methylphenyl)amino)pyrrolo[2,1-f][1,2,4]triazin-5-yl)-2-azaspiro[3.3]heptan-2-yl)-4-(dimethylamino)but-2-en-1-one], the IC50 in assay [4] is 200 to 500 nM; in assay [5] it was 500 to 1500 nM; in assay [1], 1500 to 5000 nM; in assay [3] it was less than 200 nM.

With `Cc1cc(Nc2ncnn3ccc(C4CCCN(C(=O)/C=C/CN(C)C)C4)c23)ccc1Oc1ccn2ncnc2c1` (stereo not drawn) [Example 96, (E)-1-(3-(4-((4-([1,2,4]triazolo[1,5-a]pyridin-7-yloxy)-3-methylphenyl)amino)-pyrrolo-[2,1-f][1,2,4]-triazin-5-yl)piperidin-1-yl)-4-(dimethylamino)but-2-en-1-one], the half-inhibitory concentration (IC50) in assay [4] was less than 200 nM; in assay [5], 500 to 1500 nM; in assay [1] it was 1500 to 5000 nM; in assay [3], less than 200 nM.

With `Cc1cc(Nc2ncnn3ccc(C4CN(C(=O)/C=C/CN5CCC5)C4)c23)ccc1Oc1ccn2ncnc2c1` [Example 102, (E)-1-(3-(4-((4-([1,2,4]triazolo[1,5-a]pyridin-7-yloxy)-3-methylphenyl)amino)pyrrolo[2,1-f][1,2,4]triazin-5-yl)azetidin-1-yl)-4-(azetidin-1-yl)but-2-en-1-one], the IC50 in assay [4] is 500 to 1500 nM; in assay [5], 1500 to 5000 nM; in assay [1], 1500 to 5000 nM; in assay [3], less than 200 nM.

As to `Cc1cc(Nc2ncnn3ccc(-c4cnn(CCNC(=O)/C=C/CN(C)C)c4)c23)ccc1Oc1ccn2ncnc2c1` [Example 103, (E)-N-(2-(4-(4-((4-([1,2,4]triazolo[1,5-a]pyridin-7-yloxy)-3-methylphenyl)amino)pyrrolo[2,1-f][1,2,4]triazin-5-yl)-1H-pyrazol-1-yl)ethyl)-4-(dimethylamino)but-2-enamide], the concentration for half-maximal inhibition (IC50) in assay [4] was 1500 to 5000 nM; in assay [5], 1500 to 5000 nM; in assay [1], 1500 to 5000 nM; in assay [3], less than 200 nM.

With `C=CC(=O)N1CCC[C@H](c2ccn3ncnc(Nc4ccc(Oc5ccn6ncnc6c5)c(C)c4)c23)CC1` [Example 112, (S)-1-(4-(4-((4-([1,2,4]triazolo[1,5-a]pyridin-7-yloxy)-3-methylphenyl)amino)pyrrolo[2,1-f][1,2,4]triazin-5-yl)azepan-1-yl)prop-2-en-1-one], the IC50 in assay [3] and in assay [2] was less than 200 nM each time.

With `C=CC(=O)N1CCC2(C1)CN(c1ccn3ncnc(Nc4ccc(Oc5ccn6ncnc6c5)c(C)c4)c13)C2` [Example 155, 1-(2-{4-[(3-methyl-4-{[1,2,4]triazolo[1,5-a]pyridin-7-yloxy}phenyl)amino]pyrrolo[2,1-f][1,2,4]triazin-5-yl}-2,6-diazaspiro[3.4]octan-6-yl)prop-2-en-1-one], the IC50 in assay [4] was less than 200 nM; in assay [5], 200 to 500 nM; in assay [1] it was 1500 to 5000 nM; in assay [3], less than 200 nM.

As for `Cc1cc(Nc2ncnn3ccc(N4CC5(CCN(C(=O)/C=C/CN(C)C)C5)C4)c23)ccc1Oc1ccn2ncnc2c1` [Example 156, (2E)-4-(dimethylamino)-1-(2-{4-[(3-methyl-4-{[1,2,4]triazolo[1,5-a]pyridin-7-yloxy}phenyl)amino]pyrrolo[2,1-f][1,2,4]triazin-5-yl}-2,6-diazaspiro[3.4]octan-6-yl)but-2-en-1-one], the IC50 in assay [4] is 200 to 500 nM; in assay [5] it was 1500 to 5000 nM; in assay [1], 1500 to 5000 nM; in assay [3], less than 200 nM.

Take `Cc1cc(Nc2ncnn3ccc(C(=O)NCCCN(C)C)c23)ccc1Oc1ccn2ncnc2c1` [Example 178, 4-((4-([1,2,4]triazolo[1,5-a]pyridin-7-yloxy)-3-methylphenyl)amino)-N-(3-(dimethylamino)-propyl)pyrrolo[2,1-f][1,2,4]triazine-5-carboxamide]: the IC50 in assay [4] was 200 to 500 nM; in assay [5], 1500 to 5000 nM; in assay [1], more than 5000 nM; in assay [3] it was less than 200 nM.

A word on the IC50: it is the concentration at which inhibition is half-maximal.
